Results: EPA's ToxValDB 9.5
Values joined by “and” are separate entries in the source; they are usually repeats but may differ in a detail not shown here. Equal values may be shown once.

How the values were obtained:
Rattus norvegicus [1] = conditions: M/F
Mus musculus [2] = conditions: hepatic; for LOAEL: chronic, duration: 6 months, inhalation, F
Rattus norvegicus [3] = conditions: oral
Rattus norvegicus [4] = conditions: oral; remark: listed apart in the source
Mus musculus [5] = conditions: reproduction developmental; oral; drinking water; F; Nod/Shilt; generation: F1; F1: Endocrine: Blood: Glucose (GLU) + F1: Endocrine: Multiple Organs: Diabetes + F1: Endocrine: Pancreas: Insulitis
Rattus norvegicus [6] = conditions: oral, gavage, Crl:CD(SD)
[7] = chronic, duration: 2 years, inhalation, no effects
[8] = subchronic, oral, myocardial degeneration, hepatotoxicity and nephrotoxicity
[9] = short-term, inhalation, degeneration of olfactory epithelium
[10] = subchronic, oral, gavage, hepatic lesions
[11] = reproduction developmental, oral, drinking water, neurodevelopmental effects
[12] = chronic, duration: 2 years, oral, diet, reduced body weight
[13] = developmental, inhalation, reduced pup weight in the f1 and f2 generations
[14] = chronic, duration: 2 years, oral, diet, decreased body weight gain increased plantar ulcer (females)
[15] = reproduction developmental, oral, reduced fertility in the F1/F2b generation + Reduced relative kidney weights in F0, F1, and F2b adults
[16] = developmental, duration: 46 days, gavage, F, Developmental: Decreased body weight in pups on PNDs 0 and 4 (13-19% in males and 12-16% in females)
[17] = subchronic, duration: 46 days, gavage, M/F, Body Weight: Decreased body weight (~10%) in males during exposure and recovery and in satellite females during dosing (~23% on day 40) and …
[18] = developmental, F, generation: F1, F1: Developmental: Whole Body: Pup Weight Relative to Litter (PND 0) + F1: Developmental: Whole Body: Pup Weight Relative to Litter (PND 4)
[19] = developmental, M/F, generation: F1, F1: Developmental: Whole Body: Live Birth Index + F1: Developmental: Whole Body: Live Pups Born + F1: Developmental: Whole Body: No. Live …
[20] = developmental, M, generation: F1, F1: Developmental: Whole Body: Pup Weight Relative to Litter (PND 0) + F1: Developmental: Whole Body: Pup Weight Relative to Litter (PND 4)
[21] = reproduction developmental, duration: 42 days, M, generation: P0, P0: Blood: Albumin/Globulin (A/G) Ratio + P0: Liver: Cholesterol (CHOL), Total, Blood + P0: Liver: Hepatocellular Hypertrophy + P0: Liver: …
[22] = reproduction developmental, duration: 46 days, F, generation: F1, F1: Whole Body: Pup Weight Relative to Litter (PND 0) + F1: Whole Body: Pup Weight Relative to Litter (PND 4)
[23] = reproduction developmental, duration: 46 days, F, generation: P0, P0: Liver: Cholesterol (CHOL), Total, Blood + P0: Liver: Phospholipid
[24] = reproduction developmental, duration: 46 days, M, generation: F1, F1: Whole Body: Pup Weight Relative to Litter (PND 0) + F1: Whole Body: Pup Weight Relative to Litter (PND 4)
[25] = reproduction developmental, F, generation: P0, P0: Developmental: Uterus: Implantation + P0: Developmental: Uterus: Implantation Index + P0: Hepatic: Blood: Albumin/Globulin (A/G) Ratio…
[26] = reproduction developmental, F, generation: P0, P0: General Toxicity: Whole Body: Clinical Observations + P0: General Toxicity: Whole Body: Maternal Body Weight Change + P0: Other Systems…
[27] = reproduction developmental, M, generation: P0, P0: General Toxicity: Whole Body: Body Weight Change + P0: General Toxicity: Whole Body: Clinical Observations + P0: Other Systems: Bone: …
[28] = reproduction developmental, M, generation: P0, P0: Hepatic: Blood: Albumin/Globulin (A/G) Ratio + P0: Hepatic: Liver: Alanine Aminotransferase (ALT) + P0: Hepatic: Liver: Albumin (A) + P0…
[29] = subchronic, oral, renal and hepatotoxicity

`CC(F)F` [1,1-Difluoroethane] showed an NOAEL (Rattus norvegicus [1]; [7]) of 67500 mg/m3.
Work on `CN(C)N` [1,1-Dimethylhydrazine] yielded an LOAEL (Mus musculus [2]; C57BL/6) of 0.123 mg/m3.
Work on `CC(F)(F)Cl` [1-Chloro-1,1-difluoroethane] yielded an NOAEL (Rattus norvegicus [1]; [7]) of 82600 mg/m3.
Work on `OCC(Cl)CCl` (centres undefined) [2,3-Dichloro-1-propanol] yielded an LOAEL (Rattus norvegicus [1]; [8]) of 35 mg/kg-day and an NOAEL (Rattus norvegicus [1]; [8]) of 10 mg/kg-day.
`CC=O` [Acetaldehyde] was tested, and the NOAEL (Rattus norvegicus [3]; short-term, duration: 28 days, drinking water, M/F, Wistar, Food Consumption: decrease + Water Consumption: decrease + Blood Chemistry: BUN increase, T-Bil decrease, ALT decrease, ALP decrease + …) was 125 mg/kg-day, the LOAEL (Rattus norvegicus [1]; [9]) was 728 mg/m3 and the NOAEL (Rattus norvegicus [1]; [9]) was 273 mg/m3.
For `BrC(Br)Br` [Bromoform], the LOAEL (Rattus norvegicus [1]; [10]) was 50 mg/kg-day, the NOEL (Rattus norvegicus [1]; [10]) was 25 mg/kg-day and 17.9 mg/kg-day and the NOAEL (Mus musculus [2]; short-term, duration: 14 days, oral, gavage, M, CD1) was 72 mg/kg-day. It also gave an LOAEL (Rattus norvegicus [4]; chronic, duration: 103 weeks, gavage, M/F, Fischer 344, hepatic) of 100 mg/kg-day and an NOAEL (Rattus norvegicus [4]; subchronic, duration: 13 weeks, gavage, M/F, Fischer 344, hepatic) of 25 mg/kg-day.
With `[O-][Cl+][O-]` [Chlorite] the LOAEL (Rattus norvegicus [1]; [11]) was 6 mg/kg-day, the NOAEL (Rattus norvegicus [1]; [11]) was 3 mg/kg-day and the NOAEL (Rattus norvegicus [4]; developmental, duration: 16 weeks, drinking water, M/F, Sprague-Dawley, developmental) was 2.9 mg/kg-day.
`COc1nc(C)nc(NC(=O)NS(=O)(=O)c2ccccc2Cl)n1` [Chlorsulfuron] gave an LEL (Rattus norvegicus [1]; [12]) of 25 mg/kg-day and an NOEL (Rattus norvegicus [1]; [12]) of 5 mg/kg-day.
`C1CCCCC1` [Cyclohexane] showed an LOAEL (Rattus norvegicus [1]; [13]) of 24100 mg/m3 and an NOAEL (Rattus norvegicus [1]; [13]) of 6890 mg/m3.
In the case of `CCOP(=O)(OCC)SCCSCC.CCOP(=S)(OCC)OCCSCC` [Demeton], the LEL (Rattus norvegicus [1]; chronic, duration: 2 years, oral, diet, cholinesterase inhibition, optic nerve degeneration) is reported as 0.04 mg/kg-day.
Work on `CC(C)C(Nc1ccc(C(F)(F)F)cc1Cl)C(=O)OC(C#N)c1cccc(Oc2ccccc2)c1` (centres undefined) [Fluvalinate] yielded an LEL (Rattus norvegicus [1]; [14]) of 2.5 mg/kg-day and an NOEL (Rattus norvegicus [1]; [14]) of 1 mg/kg-day.
`COC(=O)C(C)Oc1ccc(Oc2ncc(C(F)(F)F)cc2Cl)cc1` (centres undefined) [Haloxyfop-methyl] gave an LEL (Rattus norvegicus [1]; [15]) of 0.05 mg/kg-day and an NOEL (Rattus norvegicus [1]; [15]) of 0.005 mg/kg-day.
`NN` [Hydrazine] was tested, and the LOAEL (Mus musculus [2]; ICR) was 0.262 mg/m3.
`O=C(O)C(F)(F)C(F)(F)C(F)(F)C(F)(F)C(F)(F)C(F)(F)C(F)(F)C(F)(F)C(F)(F)C(F)(F)F` [Perfluoroundecanoic acid] was tested, and the NOEL (Rattus norvegicus [3]; subchronic, gavage, M, Sprague-Dawley, Body Weight Changes: Body weight gain decrease + Hematology: Fibrinogen decrease + Blood Chemistry: BUN increase, ALP increase, TP decrease…) was 0.1 mg/kg-day, the LOAEL (Rattus norvegicus [4]; [16]) was 1 mg/kg-day and the NOAEL (Rattus norvegicus [4]; [16]) was 0.3 mg/kg-day. It also gave an LOAEL (Rattus norvegicus [4]; [17]) of 1 mg/kg-day, an NOAEL (Rattus norvegicus [4]; [17]) of 0.3 mg/kg-day and an NOAEL (Rattus norvegicus [4]; subchronic, duration: 46 days, gavage, M/F, Hepatic: Increased absolute and relative liver weight and centrilobular hypertrophy at 1.0 mg/kg/day) of 1 mg/kg-day. It also gave an LOAEL (Mus musculus [5]) of 0.042 mg/kg-day, an NOAEL (Mus musculus [5]) of 0.004 mg/kg-day and an LOAEL (Rattus norvegicus [6]; [18]) of 0.3 mg/kg-day. It also gave an NOAEL (Rattus norvegicus [6]; [18]) of 0.1 mg/kg-day, an LOAEL (Rattus norvegicus [6]; [19]) of 0.3 mg/kg-day and an NOAEL (Rattus norvegicus [6]; [19]) of 0.1 mg/kg-day. For the same compound, the LOAEL (Rattus norvegicus [6]; [20]) was 0.3 mg/kg-day, the NOAEL (Rattus norvegicus [6]; [20]) was 0.1 mg/kg-day and the NEL (Rattus norvegicus [6]; reproduction developmental, duration: 42 days, M, generation: P0, P0: Adrenal: Adrenal Gland Histopathology + P0: Adrenal: Adrenal Gland Weight, Absolute + P0: Adrenal: Adrenal Gland Weight, Relative + P0: …) was 1 mg/kg-day. For the same compound, the LEL (Rattus norvegicus [6]; reproduction developmental, duration: 42 days, M, generation: P0, P0: Adrenal: Adrenal Gland Weight, Absolute, Recovery + P0: Blood: Activated Partial Thromboplastin Time (APTT) + P0: Blood: Calcium (CA), …) was 1 mg/kg-day, the NEL (Rattus norvegicus [6]; reproduction developmental, duration: 42 days, M, generation: P0, P0: Blood: Activated Partial Thromboplastin Time (APTT) + P0: Blood: Calcium (CA), Blood + P0: Blood: Fibrinogen + P0: Blood: Mean …) was 0.3 mg/kg-day and the LEL (Rattus norvegicus [6]; [21]) was 0.3 mg/kg-day. The NEL (Rattus norvegicus [6]; [21]) was 0.1 mg/kg-day, the LEL (Rattus norvegicus [6]; reproduction developmental, duration: 42 days, M, generation: P0, P0: Blood: Platelets (PLT)) was 0.1 mg/kg-day and the LEL (Rattus norvegicus [6]; [22]) was 1 mg/kg-day. It also gave an NEL (Rattus norvegicus [6]; [22]) of 0.3 mg/kg-day, an NEL (Rattus norvegicus [6]; reproduction developmental, duration: 46 days, F, generation: P0, P0: Adrenal: Adrenal Gland Histopathology + P0: Adrenal: Adrenal Gland Weight, Absolute + P0: Adrenal: Adrenal Gland Weight, Relative + P0: …) of 1 mg/kg-day and an LEL (Rattus norvegicus [6]; reproduction developmental, duration: 46 days, F, generation: P0, P0: Adrenal: Adrenal Gland Weight, Absolute, Recovery + P0: Blood: Fibrinogen + P0: Blood: Mean Corpuscular Hemoglobin (MCH) + P0: Blood: …) of 1 mg/kg-day. The NEL (Rattus norvegicus [6]; reproduction developmental, duration: 46 days, F, generation: P0, P0: Blood: Fibrinogen + P0: Blood: Mean Corpuscular Hemoglobin (MCH) + P0: Blood: Mean Corpuscular Volume (MCV) + P0: Kidney: Blood Urea …) was 0.3 mg/kg-day, the LEL (Rattus norvegicus [6]; reproduction developmental, duration: 46 days, F, generation: P0, P0: Blood: Total Protein (TP), Blood + P0: Thymus: Thymus Histopathology) was 0.1 mg/kg-day and the LEL (Rattus norvegicus [6]; [23]) was 0.3 mg/kg-day. For the same compound, the NEL (Rattus norvegicus [6]; [23]) was 0.1 mg/kg-day, the NEL (Rattus norvegicus [6]; reproduction developmental, duration: 46 days, M/F, generation: F1, F1: Whole Body: Live Birth Index + F1: Whole Body: Live pups (PND 4) + F1: Whole Body: Live Pups Born + F1: Whole Body: Male Pups per Pups …) was 1 mg/kg-day and the LEL (Rattus norvegicus [6]; [24]) was 1 mg/kg-day. It also gave an NEL (Rattus norvegicus [6]; [24]) of 0.3 mg/kg-day, an LOAEL (Rattus norvegicus [6]; reproduction developmental, F, generation: P0, P0: Cardiovascular: Heart: Heart Histopathology + P0: Cardiovascular: Heart: Heart Weight, Absolute + P0: Cardiovascular: Heart: Heart …) of 0.3 mg/kg-day and an LOAEL (Rattus norvegicus [6]; [25]) of 0.3 mg/kg-day. It also gave an NOAEL (Rattus norvegicus [6]; [25]) of 0.1 mg/kg-day, an LOAEL (Rattus norvegicus [6]; [26]) of 1 mg/kg-day and an NOAEL (Rattus norvegicus [6]; [26]) of 0.3 mg/kg-day. It also gave an LOAEL (Rattus norvegicus [6]; reproduction developmental, M, generation: P0, P0: Cardiovascular: Heart: Heart Histopathology + P0: Cardiovascular: Heart: Heart Weight, Absolute + P0: Cardiovascular: Heart: Heart …) of 0.3 mg/kg-day, an LOAEL (Rattus norvegicus [6]; [27]) of 1 mg/kg-day and an NOAEL (Rattus norvegicus [6]; [27]) of 0.3 mg/kg-day. For the same compound, the LOAEL (Rattus norvegicus [6]; [28]) was 0.3 mg/kg-day and the NOAEL (Rattus norvegicus [6]; [28]) was 0.1 mg/kg-day.
`C#CCO` [Propargyl alcohol] gave an LOAEL (Rattus norvegicus [1]; [29]) of 15 mg/kg-day and an NOAEL (Rattus norvegicus [1]; [29]) of 5 mg/kg-day.
